# Results reported in US8436195B2 (priority 2006, dated 2013).
# Key:
# [1] = tested on: cancer cells PC-3 (prostate carcinoma); assay: Mitochondria membranes of PC-3 cancer cells after incubation with preparation; format: cell-based; settings: PC-3 cells, diluted to 10^−5 mmol/l, 72 hours at 37° C.
# Method: A control group was also formed consisting of the same number of vials with the same components except cancer cells, and instead, fibroblasts were put in the group vials. After thermostatting for 72 hours at 37° C. the contents of the above vials was analyzed.
# [2] = water and alcohol; from Mashkovskiy, Medications; cited from earlier work
SMILES,state of mitochondria membranes [1],solubility [2]
COc1cccc2c1C(=O)c1c(O)c3c(c(O)c1C2=O)C[C@@](O)(C(=O)CO)C[C@@H]3O[C@H]1C[C@H](N)[C@H](O)[C@H](C)O1 [adriamycin],membrane swelling,
O=c1[nH]cc(F)c(=O)[nH]1 [fluororacil],,poorly soluble in water and alcohol
